Laboratory results reported in patent US6869957B1, “Non-peptide tachykinin receptor antagonists” (Eli Lilly and Company, priority 1993, dated 2005).

Columns and labels:
NK-1 receptor = target: T1, NK-1 receptor (Homo sapiens, UniProt P25103); assay: NK-1 Receptor Binding Assay (125I-labeled substance P, IM9 cells); settings: for IC50: inhibits fifty percent of binding of 125I-substance P to IM9 cells
T1 construct: endogenous in cells; host or cells: IM9 cells (human cell line), whole cells
Method in brief: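 Radioligand binding on human IM9 cells, ended by filtration over glass fiber filters presoaked in 0.1% polyethylenimine. Specific binding of labeled substance P defined with 20 nM unlabeled ligand.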

human NK-2 receptor = target: T2, human NK-2 receptor (Homo sapiens, UniProt P21452); assay: NK-2 Receptor Binding Assay ([125I]iodohistidyl-neurokinin A, CHO-hNK-2R membranes); settings: for IC50: inhibits fifty percent of binding of [125I]iodohistidyl-neurokinin A to CHO-hNK-2R membranes; for NK-2 percent inhibition of binding: @ 10 μM
T2 construct: expressed in transfected cells; host or cells: CHO-hNK-2R cells (CHO-derived), membrane preparation
T2 sequence (P21452 1-398): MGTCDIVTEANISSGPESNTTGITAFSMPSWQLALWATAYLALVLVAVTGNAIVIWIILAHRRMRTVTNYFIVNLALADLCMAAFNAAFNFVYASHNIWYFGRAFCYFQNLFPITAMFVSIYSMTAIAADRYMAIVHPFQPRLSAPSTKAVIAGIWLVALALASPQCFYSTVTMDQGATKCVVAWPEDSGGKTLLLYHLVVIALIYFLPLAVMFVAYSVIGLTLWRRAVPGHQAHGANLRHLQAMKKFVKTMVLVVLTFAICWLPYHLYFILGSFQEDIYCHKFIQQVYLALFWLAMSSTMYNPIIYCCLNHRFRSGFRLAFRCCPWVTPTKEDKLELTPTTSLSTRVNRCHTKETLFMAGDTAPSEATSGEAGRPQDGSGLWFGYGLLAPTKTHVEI
Method in brief: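 Membranes from CHO cells stably expressing human NK-2 receptor (~400,000/cell), 40 μg protein per sample, in 50 mM Tris pH 7.4 with 3 mM MnCl2, 0.02% BSA, 4 μg/ml chymostatin. Displacement of 20 pM [125I]iodohistidyl-neurokinin A, 1 hr at room temperature; GF/B filtration, gamma counting. Non-specific binding defined with 1 μM eledoisin.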

T1 sequence (P25103 whole entry): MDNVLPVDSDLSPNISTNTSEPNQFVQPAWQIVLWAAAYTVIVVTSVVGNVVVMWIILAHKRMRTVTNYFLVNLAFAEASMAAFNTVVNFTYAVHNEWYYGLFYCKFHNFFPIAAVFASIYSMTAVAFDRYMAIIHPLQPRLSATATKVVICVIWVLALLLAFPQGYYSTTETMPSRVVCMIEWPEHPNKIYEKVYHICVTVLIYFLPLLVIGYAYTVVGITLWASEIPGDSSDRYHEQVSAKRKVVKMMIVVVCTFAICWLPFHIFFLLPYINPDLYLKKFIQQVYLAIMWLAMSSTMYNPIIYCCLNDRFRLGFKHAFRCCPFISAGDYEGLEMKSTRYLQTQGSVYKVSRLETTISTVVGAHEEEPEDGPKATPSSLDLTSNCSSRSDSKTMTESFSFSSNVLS

Row | SMILES | IC50 (NK-1 receptor) [nM] | IC50 (human NK-2 receptor) [nM] | other results
1 | COc1ccccc1CN(CC(Cc1c[nH]c2ccccc12)NC(=O)CN1CCCC1)C(C)=O (centres unmarked) [Example 59] | 7.3 | 3700 | –
2 | COc1ccccc1CNCC(Cc1c[nH]c2cc(C)ccc12)NC(c1ccccc1)(c1ccccc1)c1ccccc1 (centres unmarked) [Example 169] | – | 13900 | NK-1 percent inhibition of binding (NK-1 receptor; @ 5 μM): 8% @ 5 μM
3 | CC(=O)N(Cc1ccccc1Cl)CC(Cc1c[nH]c2ccccc12)NC(=O)CN1CCC(N2CCCCC2)CC1 (racemic) [Example 47] | 0.25 | 1800 | –
4 | COc1ccccc1CN(CC(Cc1ccccc1)NC(=O)CN1CCC(N2CCCCC2)CC1)C(C)=O (centres unmarked) [Example 148] | 24 | 8500 | –
5 | COc1ccccc1CN(CC(Cc1ccccc1)NC(=O)CBr)C(C)=O (centres unmarked) [Example 161a] | – | 17600 | NK-1 percent inhibition of binding (NK-1 receptor; @ 5 μM): 77% @
6 | COc1cccc(CN(CC(Cc2c[nH]c3ccccc23)NC(=O)CN2CCN(c3ccccc3)CC2)C(C)=O)c1 (centres unmarked) [Example 21] | 4.6 | 1200 | –
7 | COc1ccccc1CN(C=O)CC(Cc1c[nH]c2ccccc12)NC(=O)CN1CCN(c2ccccc2)CC1 (centres unmarked) [Example 24] | 1.2 | 640 | –
8 | COc1ccccc1CN(CC(Cc1c[nH]c2ccccc12)NC(=O)CN1CCN(C(C)=O)CC1)C(C)=O (centres unmarked) [Example 79] | 38 | 6100 | –
9 | COc1ccccc1CN(CC(Cc1c[nH]c2ccccc12)NC(=O)CN1CCN(c2ccccc2)CC1)S(C)(=O)=O (centres unmarked) [Example 37] | 4.2 | 600 | –
10 | COc1ccccc1CN(CC(Cc1c[nH]c2ccccc12)NC(=O)CNCc1ccccn1)C(C)=O (centres unmarked) [Example 81] | 13 | 1100 | –
11 | CCCCCCN(CC(Cc1c[nH]c2ccccc12)NC(=O)CN1CCN(c2ccccc2)CC1)C(C)=O (centres unmarked) [Example 40] | 21.3 | 910 | –
12 | COc1ccccc1CN(CC(NC(=O)CN1CCN(c2ccccc2)CC1)c1ccc(Cl)c(Cl)c1)C(C)=O (centres unmarked) [Example 139] | 396 | 580 | –
13 | COc1ccccc1CN(CC(Cc1c[nH]c2ccccc12)NC(=O)CCCC(=O)c1ccccc1)C(C)=O (centres unmarked) [Example 98] | 21 | 600 | –
14 | COc1ccccc1CN(CC(Cc1c[nH]c2ccccc12)NC(=O)CN1CCN(Cc2ccccc2)CC1)C(C)=O (centres unmarked) [Example 77] | 0.88 | 630 | –
15 | COc1ccccc1CN(CC(Cc1c[nH]c2ccccc12)NC(=O)CN1CCN(c2ccccc2)CC1)C(=O)CN(C)C (centres unmarked) [Example 35] | 0.89 | 600 | –
16 | CC(NCC(Cc1c[nH]c2ccccc12)NC(=O)CN1CCC(N2CCCCC2)CC1)c1ccccc1 (centres unmarked) [Example 102] | 210 | – | NK-2 percent inhibition of binding (human NK-2 receptor): 59% @
17 | CC(=O)N(CC(Cc1c[nH]c2ccccc12)NC(=O)CN1CCC(N2CCCCC2)CC1)c1ccccc1 (centres unmarked) [Example 53] | – | 5200 | NK-1 percent inhibition of binding (NK-1 receptor; @ 5 μM): 58% @
18 | COc1ccccc1CN(CC(Cc1c[nH]c2ccc(Br)cc12)NC(=O)CN1CCN(c2ccccc2)CC1)C(C)=O (centres unmarked) [Example 116] | 58 | 930 | –
19 | COc1ccccc1CN(CC(Cc1c[nH]c2ccccc12)NC(=O)CN1CCN(C)CC1)C(C)=O (centres unmarked) [Example 71] | 7.5 | 8900 | –
20 | CC(=O)N(Cc1ccccc1)CC(Cc1c[nH]c2ccccc12)NC(=O)CN1CCN(c2ccccc2)CC1 (centres unmarked) [Example 12] | 1.6 | 1600 | –
21 | CC(=O)N(CCc1ccccc1)CC(Cc1c[nH]c2ccccc12)NC(=O)CN1CCN(c2ccccc2)CC1 (centres unmarked) [Example 43] | 179 | 39 | –
22 | CCCCCCN(CC(Cc1c[nH]c2ccccc12)NC(c1ccccc1)(c1ccccc1)c1ccccc1)C(C)=O (centres unmarked) [Example 166] | – | 10000 | NK-1 percent inhibition of binding (NK-1 receptor; @ 5 μM): 0% @ 5 μM
23 | COc1ccccc1CNCC(NC(c1ccccc1)(c1ccccc1)c1ccccc1)c1ccccc1 (centres unmarked) [Example 173] | 74 | 2000 | –
24 | COc1ccccc1CN(CC(NC(c1ccccc1)(c1ccccc1)c1ccccc1)c1ccccc1)C(C)=O (centres unmarked) [Example 175] | – | – | NK-1 percent inhibition of binding (NK-1 receptor; @ 5 μM): 28% @; NK-2 percent inhibition of binding (human NK-2 receptor): 9% @
25 | COc1ccccc1CN(CC(Cc1c[nH]c2ccccc12)NC(=O)CN1CCc2ccccc21)C(C)=O (centres unmarked) [Example 63] | 74 | 490 | –
26 | CC(=O)N(Cc1ccccc1[N+](=O)[O-])CC(Cc1c[nH]c2ccccc12)NC(=O)CN1CCN(c2ccccc2)CC1 (centres unmarked) [Example 16] | 4.2 | 1200 | –

Row | SMILES | IC50 (NK-1 receptor) [nM] | IC50 (human NK-2 receptor) [nM] | other results
27 | CC(=O)N(Cc1ccccc1)CC(Cc1c[nH]c2ccccc12)NC(=O)CN1CCC(N2CCCCC2)CC1 (centres unmarked) [Example 46] | 2.2 | 2400 | –
28 | COc1ccccc1CN(CC(Cc1c[nH]c2ccccc12)NC(=O)CN1CCC(c2ccccc2)CC1)C(C)=O (centres unmarked) [Example 65] | 7.2 | 600 | –
29 | CC(=O)NC1(c2ccccc2)CCN(CC(=O)NC(Cc2c[nH]c3ccccc23)CN(C)C(=O)c2ccccc2)CC1 (centres unmarked) [Example 156] | – | 9500 | NK-1 percent inhibition of binding (NK-1 receptor; @ 5 μM): 78% @
30 | COc1ccccc1CN(CC(Cc1ccccc1)NC(c1ccccc1)(c1ccccc1)c1ccccc1)C(C)=O (centres unmarked) [Example 177] | – | – | NK-1 percent inhibition of binding (NK-1 receptor; @ 10 μM): 0% @; NK-2 percent inhibition of binding (human NK-2 receptor): 12% @
31 | CC(=O)N(CC(Cc1c[nH]c2ccccc12)NC(=O)CN1CCN(c2ccccc2)CC1)c1ccccc1 (centres unmarked) [Example 42] | – | 1200 | NK-1 percent inhibition of binding (NK-1 receptor; @ 1 μM): 16% @
32 | CC(=O)N(CC1CCCCC1)CC(Cc1c[nH]c2ccccc12)NC(=O)CN1CCN(c2ccccc2)CC1 (centres unmarked) [Example 41] | 7.7 | 930 | –
33 | COc1ccccc1CN(CC(NC(c1ccccc1)(c1ccccc1)c1ccccc1)c1ccc(Cl)c(Cl)c1)C(C)=O (centres unmarked) [Example 176] | – | – | NK-1 percent inhibition of binding (NK-1 receptor; @ 5 μM): 9% @ 5 μM; NK-2 percent inhibition of binding (human NK-2 receptor): 0% @
34 | COc1ccccc1CN(CC(Cc1c[nH]c2ccccc12)NC(=O)CN1CCN(c2ccccc2)CC1)C(=O)COC(C)=O (centres unmarked) [Example 32] | 0.98 | 1100 | –
35 | CSc1ccc(CN(CC(Cc2c[nH]c3ccccc23)NC(=O)CN2CCN(c3ccccc3)CC2)C(C)=O)cc1 (centres unmarked) [Example 23] | 13 | 810 | –
36 | COc1ccccc1CN(CC(Cc1c[nH]c2ccccc12)NC(=O)CN1CCC(NC(C)=O)(c2ccccc2)CC1)C(C)=O (centres unmarked) [Example 68] | 0.41 | 2400 | –
37 | COc1ccccc1CN(CC(Cc1c[nH]c2ccccc12)NC(=O)CN1CCN(c2ccccc2)CC1)C(=O)CO (centres unmarked) [Example 33] | 1.9 | 670 | –
38 | O=C(CN1CCN(c2ccccc2)CC1)NC(CNCC1CCCCC1)Cc1c[nH]c2ccccc12 (centres unmarked) [Example 153] | 650 | 540 | –
39 | COc1ccccc1CNCC(Cc1c[nH]c2ccccc12)NC(C)=O (centres unmarked) [Example 105] | 630 | 15200 | –
40 | COc1ccccc1CN(CC(NC(=O)CN1CCC(N2CCCCC2)CC1)c1ccc(Cl)c(Cl)c1)C(C)=O (centres unmarked) [Example 147] | 196 | 430 | –
41 | COc1ccccc1CN(CC(NC(=O)CN1CCC(N2CCCCC2)CC1)c1ccccc1)C(C)=O (centres unmarked) [Example 146] | 420 | 3900 | –
42 | COc1ccccc1CN(CC(Cc1ccc2ccccc2c1)NC(=O)CN1CCN(c2ccccc2)CC1)C(C)=O (centres unmarked) [Example 142] | 8.6 | 830 | –
43 | COc1ccccc1CN(CC(Cc1c[nH]c2ccccc12)NC(=O)CN1CCN(c2ccccc2)CC1)C(=O)c1ccccc1 (centres unmarked) [Example 27] | 1.6 | 710 | –
44 | COc1ccccc1CN(CC(Cc1c[nH]c2ccccc12)NC(=O)CN1CCN(c2cccc(C(F)(F)F)c2)CC1)C(C)=O (centres unmarked) [Example 70] | 13 | 1000 | –
45 | CN(CC(Cc1c[nH]c2ccccc12)NC(=O)CN1CCC(N2CCCCC2)CC1)C(=O)c1ccccc1 (centres unmarked) [Example 155] | – | 12200 | NK-1 percent inhibition of binding (NK-1 receptor; @ 5 μM): 63% @
46 | COc1ccccc1CN(CC(Cc1c[nH]c2ccccc12)NC(=O)CN1CCOCC1)C(C)=O (centres unmarked) [Example 62] | 43 | 5900 | –
47 | COc1ccccc1CNCC(Cc1ccccc1)NC(c1ccccc1)(c1ccccc1)c1ccccc1 (centres unmarked) [Example 174] | – | 6400 | NK-1 percent inhibition of binding (NK-1 receptor; @ 5 μM): 0% @ 5 μM
48 | O=C(CN1CCN(c2ccccc2)CC1)NC(CNC(=O)c1ccccc1)Cc1c[nH]c2ccccc12 (centres unmarked) [Example 152] | 1200 | 2000 | –
49 | COc1ccccc1CNCC(Cc1c[nH]c2cc(F)ccc12)NC(=O)CN1CCC(N2CCCCC2)CC1 (centres unmarked) [Example 123] | 27 | 2500 | –
50 | COc1ccccc1CN(CC(NC(=O)CBr)c1ccccc1)C(C)=O (centres unmarked) [Example 161] | – | – | NK-1 percent inhibition of binding (NK-1 receptor; @ 5 μM): 24% @; NK-2 percent inhibition of binding (human NK-2 receptor): 0% @
51 | COc1ccccc1CN(CC(Cc1ccccc1)NC(=O)CN1CCN(c2ccccc2)CC1)C(C)=O (centres unmarked) [Example 140] | 3.1 | 3000 | –
52 | CC(=O)N(CC(Cc1c[nH]c2ccccc12)NC(c1ccccc1)(c1ccccc1)c1ccccc1)c1ccccc1 (centres unmarked) [Example 167] | – | 21000 | NK-1 percent inhibition of binding (NK-1 receptor; @ 5 μM): 0% @ 5 μM
